Test results: US9649324B2, “Use of tylvalosin as antiviral agent” (ECO ANIMAL HEALTH LIMITED, priority 2006, dated 2017)

Columns and labels:
[1] = test system: Caco-2 cells; experiment: Intracellular accumulation and trans-epithelial transport in polarised Caco-2 cells; format: in vitro ADME, human
Method: Caco-2 cells were seeded at a density of 0.8×10^6 cells per well of a Transwell Clear filter 6 well plate, 0.4 μm pore size. The cells were incubated with 2 mL medium in both apical and basolateral chambers. This medium was replaced every 2 days for 10-14 days. Transepithelial resistance was measured using Millicell ERS apparatus (Millipore) at day 7, 10 and/or 14 in order to identify when the cells had become polarised. Readings of >1000 Ω were indicative of polarised cells. […]
(§1) All the supernatant and cell samples were transported frozen (at approximately −20° C.) to York Bioanalytical Solutions (York, England) for analysis. Briefly, 0.25 g of buffer (RPMI medium containing 10% FCS) was weighed into a polypropylene tube. A 50 μL volume of the appropriate working solution was added to the quality control (QC) samples. Methanol (50 μL) was added to each blank sample used for preparation of calibration standards, recovery samples and reagent blanks. A 2.5 mL volume of 0.1 M phosphate buffer was added to each sample, vortex mixed for approximately 1 min and then centrifuged at 3220×g for 10 min at 4° C.
(§2) For the liquid-liquid clean-up phase, an aliquot (100 μL) of the supernatant was transferred to a polypropylene tube. The pH was adjusted to pH 8-8.5 by the addition of 0.1 M NaOH, and vortex mixed. Ethyl acetate (5 mL) was added and after capping, the whole mixture was shaken for 10 min and then centrifuged at 3220×g for 10 min at 4° C.
(§3) Ammonium acetate (20 mM; pH native)—formic acid, 1000:3, v/v (100 μL) was added to each well in a 2 mL polypropylene collection plate. An aliquot of the ethyl acetate mixture (100 μL) was transferred to the polypropylene collection plate and evaporated under nitrogen (40° C.) until the ethyl acetate was fully evaporated whilst the ammonium acetate remained. Methanol (100 μL) was added to each well, excluding the calibration standards.
(§4) To each well containing a calibration standard, 100 μL of the appropriate calibration working solution was added. Samples were then vortex mixed for at least 10 min and submitted for liquid chromatography with tandem mass spectrometric analysis. The method stated was applicable to the samples of media (and the calibration standards and quality control samples).
(§5) For the cells, the sample tubes were weighed, and 100 μL of acetonitrile was added. The samples were vortex mixed for 10 sec, then centrifuged at 10285×g at 4° C. for 5 min. The sample was transferred to a polypropylene tube. The original sample tube was washed with 0.1 M phosphate buffer (1 mL). This was transferred to the polypropylene tube. A second wash of 1 mL was made, then a final wash of 0.5 mL. The polypropylene tube was now at the same stage as the end of the liquid extraction, but with the cells present rather than media. This was then taken through the sample preparation as described above. The original sample tubes were allowed to dry (i.e. any remaining solvent evaporated off) and were then reweighed to determine the weight of cells in the sample, to allow the concentration per gram of cells to be determined.

[2] = test system: LLC-PK1 cells; experiment: Intracellular accumulation in pig kidney epithelial cells; format: in vitro ADME; details: LLC-PK1, 10 μg/mL
Method: LLC-PKI cells in 6 cm^2 plastic tissue culture dishes were incubated with 10 μg/mL of the different macrolides. Cells and medium were harvested as described above at 30, 75 and 120 min.
as §1, §2, §3, §4, §5

[3] = test system: PRRSV; experiment: PRRSV infection and cell spread in MA104 cells, drug added after infection (Example 5); format: cell-based; details: moi 0.01, 1 μg/ml added 8 hours post infection
Method: MA104 cells were infected with PRRSV at moi of 0.01 (should infect roughly 10% of the cells in the first round). 8 hours post infection tylvalosin, tylosin and tilmicosin were added at 1 μg/ml. Cells were harvested 28 hours post infection and infection was assessed by indirect immunofluorescence.
As stated above a moi of 0.01 should infect roughly 10% of the cells. However, after 28 hours the virus will have completed one round of infection and will have infected neighbouring cells. […] This detection increases 16-20 hours post infection and by 24 hours low levels of expression in neighbouring cells can be detected.
The addition of drugs 8 hours post infection should have no effect on the primary infection (i.e. no effect on entry of input virus). It could, however, effect viral replication directly or indirectly through other mechanisms and could also effect virus entry during the secondary round of infection where virus produced by the initially infected cells infects neighbouring cells.

[4] = Caco-2, 10 μg/mL, apical administration, 240 min
[5] = Caco-2, 100 μg/mL, apical administration, 30 min
[6] = Caco-2, 100 μg/mL, apical administration, 240 min
[7] = Caco-2, 100 μg/mL, apical administration, between 60 min and 120 min
[8] = Caco-2, 100 μg/mL, basolateral administration, 30 min
[9] = Caco-2, 100 μg/mL, basolateral administration, 240 min

Compound: CCC1OC(=O)CC(OC(C)=O)C(C)C(OC2OC(C)C(OC3CC(C)(O)C(OC(=O)CC(C)C)C(C)O3)C(N(C)C)C2O)C(CC=O)CC(C)C(=O)C=CC(C)=CC1COC1OC(C)C(O)C(OC)C1OC (stereo not drawn) [tylvalosin, 3-O acetyl-4″-O-isovaleryltylosin]
- average intracellular concentration ([1]; Caco-2, 10 μg/mL, apical administration, 120 min): 42.2 μg/mg cells
- average intracellular concentration [1, 4]: 34.3 μg/mg cells
- basolateral chamber content as average % of the apical chamber value [1, 4]: 10.47%
- intracellular:extracellular ratio (fold concentration) [1, 4]: 3.49 fold
- average intracellular concentration [1, 5]: 428 μg/mg cells
- intracellular:extracellular ratio [1, 5]: 4.64
- intracellular concentration [1, 6]: 375 μg/mg cells
- intracellular:extracellular ratio [1, 6]: 5.85
- tylvalosin in opposite (basolateral) chamber compared to the administration chamber [1, 6]: 19%
- intracellular:extracellular ratio (peak, average value) [1, 7]: 10.23-15.58
- maximum intracellular concentration [1, 7]: 559.5-620 μg/mg cells
- average intracellular concentration [1, 8]: 493 μg/mg cells
- intracellular:extracellular ratio [1, 8]: 7
- intracellular concentration [1, 9]: 155.5 μg/mg cells
- intracellular:extracellular ratio [1, 9]: 3.57
- tylvalosin in opposite (apical) chamber compared to the administration chamber [1, 9]: 22.05%
- total amount of tylvalosin transported across the cells ([1]; Caco-2, after 4 h (discussion)): about 20%
- average intracellular concentration ([2]; 75 min): 53.95 μg/mg cells
- intracellular:extracellular ratio ([2]; 120 min): 8.9
- spread of the virus to neighbouring cells [3]: prevented spread
- virus positive cells ([3]; harvested 28 hours post infection): 1%
